Biological target: T1, human Npt2a (Homo sapiens, UniProt Q06495)
T1 construct: expressed in transfected cells
T1 sequence (Q06495 1-639): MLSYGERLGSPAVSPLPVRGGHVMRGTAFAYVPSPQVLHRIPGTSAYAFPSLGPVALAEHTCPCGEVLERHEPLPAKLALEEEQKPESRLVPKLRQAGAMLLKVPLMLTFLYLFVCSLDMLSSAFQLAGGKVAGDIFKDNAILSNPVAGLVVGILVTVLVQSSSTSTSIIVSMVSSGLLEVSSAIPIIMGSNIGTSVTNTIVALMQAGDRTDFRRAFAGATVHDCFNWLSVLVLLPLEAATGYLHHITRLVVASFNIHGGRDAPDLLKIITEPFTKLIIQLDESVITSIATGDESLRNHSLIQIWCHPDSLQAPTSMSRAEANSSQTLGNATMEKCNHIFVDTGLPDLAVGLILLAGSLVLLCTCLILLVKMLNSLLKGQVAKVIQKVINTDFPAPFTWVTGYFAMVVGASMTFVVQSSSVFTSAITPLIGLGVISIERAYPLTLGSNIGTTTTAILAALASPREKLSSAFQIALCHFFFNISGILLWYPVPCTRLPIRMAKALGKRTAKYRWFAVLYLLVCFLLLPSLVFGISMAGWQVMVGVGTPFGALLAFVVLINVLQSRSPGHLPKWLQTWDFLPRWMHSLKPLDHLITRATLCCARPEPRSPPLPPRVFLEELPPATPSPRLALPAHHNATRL
Assay: Npt2a activity cell based assay, membrane potential dye, CHO T-REx hNpt2a cells
Conditions: doxycycline-induced, depolarization by sodium phosphate influx, average or median values if tested more than once
Procedure, shortened: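 Cells were doxycycline-induced CHO T-REx hNpt2a, dye-loaded and pretreated 5 min at RT with 1 nM–50 μM compound in Na-free pH 7.4 buffer. IC50 was fit to the post/pre-trigger fluorescence ratio.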

Q: How did the IC50 turn out when Cc1c(Nc2cc(-n3cc(C(F)(F)F)cn3)ncn2)nn(C)c1-c1ccc(F)cc1 [Example 424, N-[5-(4-fluorophenyl)-1,4-dimethyl-1H-pyrazol-3-yl]-6-[4-(trifluoromethyl)-1H-pyrazol-1-yl]pyrimidin-4-amine] was run?
A: Its IC50 is 0.37 µM.

Q: With CSc1c(C)nn(-c2cc(Nc3c(C)c(-c4ccc(F)cc4)nn3CC3CC3)ncn2)c1C [Example 399, N-[1-(cyclopropylmethyl)-3-(4-fluorophenyl)-4-methyl-1H-pyrazol-5-yl]-6-[3,5-dimethyl-4-(methylsulfanyl)-1H-pyrazol-1-yl]pyrimidin-4-amine] as the compound, how does the IC50 read?
A: The IC50 was 0.006 µM.

Q: For Cc1cc(C)n(-c2cc(Nc3c(C)c(-c4ccccc4)nn3C)ncn2)n1 [Example 75, N-(1,4-dimethyl-3-phenyl-1H-pyrazol-5-yl)-6-(3,5-dimethyl-1H-pyrazol-1-yl)pyrimidin-4-amine], which IC50 is on record?
A: The IC50 was 0.042 µM.

Q: How did the IC50 turn out when Cc1nn(-c2cc(Nc3nn(C)c(-c4ccc(F)cc4)c3C)ncn2)c(C)c1C(F)(F)F [Example 383, 6-[3,5-dimethyl-4-(trifluoromethyl)-1H-pyrazol-1-yl]-N-[5-(4-fluorophenyl)-1,4-dimethyl-1H-pyrazol-3-yl]pyrimidin-4-amine] was run?
A: Its IC50 is 0.005 µM.

Q: With CCc1c(Nc2cc(-n3nc(C)c(C)c3O)ncn2)n[nH]c1-c1ccc(F)cc1 [Example 34, 1-(6-{[4-ethyl-5-(4-fluorophenyl)-1H-pyrazol-3-yl]amino}pyrimidin-4-yl)-3,4-dimethyl-1H-pyrazol-5-ol] as the compound, how does the IC50 read?
A: Its IC50 is 1 µM.

Q: Which IC50 does the source give for COc1c(Nc2cc(-n3nc(C)c(C(O)C4CC4)c3C)ncn2)nn(C)c1-c1ccc(C#N)cc1 (racemic) [Example 459, (±)-4-{3-[(6-{4-[cyclopropyl(hydroxy)methyl]-3,5-dimethyl-1H-pyrazol-1-yl}pyrimidin-4-yl)amino]-4-methoxy-1-methyl-1H-pyrazol-5-yl}benzonitrile] here?
A: The IC50 was 0.046 µM.

Q: How did the IC50 turn out when CCc1c(Nc2cc(-n3nc(C)c(CC(=O)OC(C)C)c3C)ncn2)nn(C)c1-c1ccc(F)cc1 [Example 440, propan-2-yl [1-(6-{[4-ethyl-5-(4-fluorophenyl)-1-methyl-1H-pyrazol-3-yl]amino}pyrimidin-4-yl)-3,5-dimethyl-1H-pyrazol-4-yl]acetate] was run?
A: Its IC50 is 0.097 µM.

Q: CCc1c(Nc2cc(-n3nc4c(c3C)C(=O)CC4)ncn2)nn(C)c1-c1ccc(F)cc1 [Example 274, 2-(6-{[4-ethyl-5-(4-fluorophenyl)-1-methyl-1H-pyrazol-3-yl]amino}pyrimidin-4-yl)-3-methyl-5,6-dihydrocyclopenta[c]pyrazol-4(2H)-one] was tested. Which IC50 did it give?
A: The IC50 was 0.044 µM.

Q: Which IC50 does the source give for CCc1c(Nc2cc(-n3nc(C)cc3C)ncn2)nn(CCOCc2ccccc2)c1-c1ccc(F)cc1 [Example 31, N-{1-[2-(benzyloxy)ethyl]-4-ethyl-5-(4-fluorophenyl)-1H-pyrazol-3-yl}-6-(3,5-dimethyl-1H-pyrazol-1-yl)pyrimidin-4-amine] here?
A: Its IC50 is 0.67 µM.

Q: Which IC50 does the source give for Cc1nn(-c2cc(Nc3c(C)c(-c4ccc(OC(F)F)cc4)nn3CC3CC3)ncn2)c(C)c1C#N [Example 477, 1-[6-({1-(cyclopropylmethyl)-3-[4-(difluoromethoxy)phenyl]-4-methyl-1H-pyrazol-5-yl}amino)pyrimidin-4-yl]-3,5-dimethyl-1H-pyrazole-4-carbonitrile] here?
A: The IC50 was 0.098 µM.

Q: For Cc1nn(-c2cc(Nc3c(Cl)c(-c4ccccc4)nn3C)ncn2)c(C)c1Cl [Example 80, 6-(4-chloro-3,5-dimethyl-1H-pyrazol-1-yl)-N-(4-chloro-1-methyl-3-phenyl-1H-pyrazol-5-yl)pyrimidin-4-amine], which IC50 is on record?
A: The IC50 was 0.044 µM.

Q: For COc1c(C)nn(-c2cc(Nc3c(C)nn(-c4ccc(F)cc4)c3C)ncn2)c1C [Example 463, N-[1-(4-fluorophenyl)-3,5-dimethyl-1H-pyrazol-4-yl]-6-(4-methoxy-3,5-dimethyl-1H-pyrazol-1-yl)pyrimidin-4-amine], which IC50 is on record?
A: Its IC50 is 0.034 µM.

Q: With Cc1nn(-c2cc(Nc3nn(C)c(-c4ccc(F)cc4)c3Cl)ncn2)c(C)c1Cl [Example 89, 6-(4-chloro-3,5-dimethyl-1H-pyrazol-1-yl)-N-[4-chloro-5-(4-fluorophenyl)-1-methyl-1H-pyrazol-3-yl]pyrimidin-4-amine] as the compound, how does the IC50 read?
A: Its IC50 is 0.0048 µM.

From patent US11208400B2, “Substituted 6-(1H-pyrazol-1-yl)pyrimidin-4-amine derivatives and uses thereof” (Bayer Aktiengesellschaft, priority 2016, dated 2021)
